Data published in patent US7790762B2, “Compounds and methods for thiol-containing compound efflux and cancer treatment” (National Jewish Health, priority 2002, dated 2010).
Where two headings read alike, the source gives them in different places. Marks after values point to notes of the source that are not given here.

Key:
A549 cells [1] = assay: Cytotoxicity as LDH release in A549 cells; format: cell-based, human; conditions: A549, 75 μM, 48 hours treatment; for LDH release, % of control at 75 µM: Homo sapiens, read-out: LDH rel. % con.
Procedure: (§1) Cell lines and culture conditions. Human lung epithelial cancer (A549), human leukemia HL-60 and human prostate (PC-3) tumor cells were purchased from ATCC (Manassas, Va.). A549 and PC-3 cells were grown in Ham's F12 medium (F12) and Kaighn's modification of Ham's F12 medium (F12K) with 2 mM L-glutamine (ATCC), respectively, supplemented with 10% fetal bovine serum (FBS) and 5% pen/strep (10,000 unit, Cellgro). HL-60 cells were grown in Iscove's modified Dulbecco's medium with 4 mM L-glutamine (ATCC) supplemented with 20% FBS and 5% pen/strep. Cell were grown in T-75 flask at 37° C. and 5% CO2 air atmosphere and in 24-well plates for GSH levels and LDH release measurements.
(§2) Assessment of cytotoxicity. In one exemplary method, membrane integrity of A549, HL-60 and PC-3 cells was used as an index of drug-induced cytotoxicity, and was assessed by monitoring the release of cytosolic lactate dehydrogenase (LDH). LDH activity was measured in the culture medium and cell lysates (50 mM HEPES, Triton X-100 0.5%, pH 7) using a plate reader format as previously described (41). Briefly, 5 μl of cell culture supernatant and lysates were incubated with 0.24 mM NADH in a Tris/NaCl pH 7.2 buffer in 96-well plates for 5 min at 25° C. The reaction was started by the addition of 9.8 mM pyruvate and the consumption of NADH followed at 340 nm for 5 min at 30° C. Percent LDH release was calculated by the following: (supernatant LDH/supernatant LDH+lysate LDH)×100.

A549 cells [2] = assay: Intracellular GSH levels by HPLC-EC in A549 cells; format: cell-based, human; conditions: A549, 25 μM; for activity at 25 µM: Homo sapiens
Procedure: as §1
(§3) Intracellular levels of GSH. Intracellular GSH levels can be determined by HPLC-EC. Cultured cells from 24-well plates were washed once with 1 ml of PBS and then re-suspended in 0.5 ml of distilled water with 40 μM of digitonin (2 mM stock solution in DMSO) for 30 min at room temperature. Then, 50 μl of 10% meta-phosphoric acid were added (1% final concentration), the samples were sonicated for 2 min, centrifuged at 20,000 g for 10 min, and 0.2 ml of supernatant placed in vials for HPLC analysis. […] The flow rate was […]. The retention time for GSH in these conditions was 7.5 min. The HPLC instrument was from ESA, Inc. (Chelmsford, Mass.), equipped with an autosampler (model 540) and a Coul array detector (model 5600A). The potential applied was +0.75 V vs. H/Pd electrode, and the injection volume 5 μl.

PC-3 cells [3] = assay: Cytotoxicity as LDH release in PC-3 cells; format: cell-based, human; conditions: 48 hours treatment
Procedure: as §1, §2

PC-3 cells [4] = assay: Intracellular GSH levels by HPLC-EC in PC-3 cells; format: cell-based, human; conditions: PC-3, 25 μM, 24 hours treatment; for activity at 25 µM: Homo sapiens, read-out: Int. GSH % con.
Procedure: as §1, §3

epithelial cells [5] = assay: Extracellular GSH transport, Transwell Studies (Table 3); format: cell-based; conditions: 50 μM
HL-60 cells [6] = assay: Intracellular GSH levels by HPLC-EC in HL-60 cells; format: cell-based, human; conditions: 24 hours treatment; for activity at 25 µM: Homo sapiens, HL-60, 25 μM, read-out: Int. GSH % con.
Procedure: as §1, §3

epithelial cells [7] = assay: Effects of compounds on extracellular GSH transport (Table 3); format: cell-based; conditions: 50 μM
HL-60 cells [8] = assay: Cytotoxicity as LDH release in HL-60 cells; format: cell-based, human; conditions: HL-60, 50 μM, 48 hours treatment; for LDH release, % of control at 50 µM: Homo sapiens, read-out: LDH rel. % con.
Procedure: as §1, §2

P-gp = conditions: single dose; renal basement membrane, liver and intestine; cited from earlier work
A549 cells [9] = assay: Extracellular GSH in culture supernatants of A549 cells (HPLC-FD, mBBr); format: cell-based, human; conditions: 25 μM, 2 hours of treatment (FIG. 19D)
Procedure: Extracellular levels of GSH. Extracellular GSH in the culture media supernatants of A549, HL-60 and PC-3 cells were measured by an HPLC-FD method of GSH analysis after derivatization with monobromobimane (mBBr). […] The mixture was incubated in dark at room temperature for 30 min, and the reaction was stopped by addition of 10 μl of 70% perchloric acid. The samples were centrifuged at 16,000 g for 10 min and 0.18 ml of supernatant placed in vials for HPLC analysis. The HPLC column used was Synergi 4u Hydro-RP 80A (C18) (150×4.6 mm) from Phenomenex (Torrance, Calif.) and the mobile phase a mixture of 1% acetic acid in H2O (pH adjusted to 4.25 using NH4OH) with 7% acetonitrile. The flow rate was 1 ml·min^−1 and the injection volume 1 μl. The detector excitation and emission wavelengths were […], respectively. The retention time for the GSH derivative was 9.5 min.

[10] = 2 h, read-out: Intracellular GSH levels, % compared to control
[11] = 24 hours treatment, read-out: Int. GSH % con.

| SMILES | LDH release, % of control at 75 µM (A549 cells [1]) [%] | activity at 25 µM (A549 cells [2]; [10]) [%] | activity at 25 µM (A549 cells [2]; [11]) [%] | activity at 25 µM (PC-3 cells [4]) [%] | extracellular GSH levels (A549 cells [9]) | activity at 25 µM (HL-60 cells [6]) [%] | LDH release, % of control at 50 µM (HL-60 cells [8]) [%] | further results |
| --- | --- | --- | --- | --- | --- | --- | --- | --- |
| COc1ccc(-c2coc3cc(O)cc(O)c3c2=O)cc1 [Biochanin A] |  |  |  |  |  |  |  | LDH rel. % con. (A549 cells [1]): 230 % con.; Intracellular GSH levels, % compared to control (A549 cells [2]; 4 h): 36.8 ± 0.9%; Int. GSH % con. (A549 cells [2]; 24 hours treatment): <5 % con.; LDH rel. % con. (PC-3 cells [3]; PC-3, 50 μM): 127 % con.; Int. GSH % con. (PC-3 cells [4]): 81 % con.; % Increase Over Control (extracellular GSH) (epithelial cells [5]): 174 ^a %; Int. GSH % con. (HL-60 cells [6]; HL-60, 75 μM): 20 % con.; % Increase Over Control (extracellular GSH) (epithelial cells [7]): 133 ^c %; LDH rel. % con. (HL-60 cells [8]): 133 % con. |
| N.N.[Cl][Pt][Cl] [cisplatin, cis-dichlorodiammne platinum (II)] |  |  |  |  |  |  |  | induction of P-gp (P-gp): 200-300 × |
| O=C(/C=C/c1ccccc1)c1ccccc1 [Chalcone] | 150 | 48.5 ± 2.1 | < 5 | 119 | increased levels of GSH in the supernatants | 100 | 236 | LDH release, % of control at 50 µM (PC-3 cells [3]; Homo sapiens, PC-3, 50 μM, read-out: LDH rel. % con.): 229% |
| O=C(/C=C/c1ccccc1)c1ccccc1O [2′-HC, 2′-hydroxychalcone] | 515 | < 5 | < 5 | 93 | increased levels of GSH in the supernatants | < 5 | 320 | activity at 25 µM (A549 cells [2]; 4 h, read-out: Intracellular GSH levels, % compared to control): < 5%; LDH release, % of control at 25 µM (PC-3 cells [3]; Homo sapiens, PC-3, 25 μM, read-out: LDH rel. % con.): 227% |
